One assay concerns the target D2 receptor (Homo sapiens, UniProt P14416). Nature of the assay: [3H]Thymidine uptake assay for D2 intrinsic activity. It is filed as cell-based. As to conditions: Table 1; test compound 1 μM; 1 μM Quinpirole = 100% intrinsic activity.
D2 receptor, sequence (P14416 whole entry): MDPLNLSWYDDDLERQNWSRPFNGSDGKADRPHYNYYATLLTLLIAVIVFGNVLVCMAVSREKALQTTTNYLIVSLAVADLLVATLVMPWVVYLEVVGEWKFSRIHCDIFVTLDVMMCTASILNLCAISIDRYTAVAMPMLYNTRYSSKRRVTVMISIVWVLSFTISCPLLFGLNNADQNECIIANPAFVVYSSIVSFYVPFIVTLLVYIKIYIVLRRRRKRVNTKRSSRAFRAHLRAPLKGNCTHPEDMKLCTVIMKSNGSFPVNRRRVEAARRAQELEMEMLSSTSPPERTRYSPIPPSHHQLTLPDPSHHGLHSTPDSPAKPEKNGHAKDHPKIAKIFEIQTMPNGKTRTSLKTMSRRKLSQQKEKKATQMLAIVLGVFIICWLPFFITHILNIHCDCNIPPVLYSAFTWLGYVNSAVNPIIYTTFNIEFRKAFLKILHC
Usually Emax stands for the greatest response seen or fitted, relative to the assay's reference. On to `CC(C)Oc1ccccc1N1CCN(CCCCOc2ccc3c(n2)NC(=O)CC3)CC1` [Example A26, 7-{4-[4-(2-Isopropoxy-phenyl)-piperazin-1-yl]-butoxy}-3,4-dihydro-1H-[1,8]naphthyridin-2-one], for which the Emax at 1 µM worked out at 33%.

In the case of `CC(C)COc1ccccc1N1CCN(CCCCOc2ccc3c(n2)NC(=O)CC3)CC1` [Example A27, 7-{4-[4-(2-Isobutoxy-phenyl)-piperazin-1-yl]-butoxy}-3,4-dihydro-1H-[1,8]naphthyridin-2-one], the Emax at 1 µM amounted to 38%. On the same count and under the same terms, in the case of `CCc1c(Cl)cccc1N1CCN(CCCCOc2ccc3c(n2)NC(=O)CC3)CC1` [Example A29, 7-{4-[4-(3-Chloro-2-ethyl-phenyl)-piperazin-1-yl]-butoxy}-3,4-dihydro-1H-[1,8]naphthyridin-2-one] it was 20%; in that of `CC(=O)c1c(F)cccc1N1CCN(CCCCOc2ccc3c(n2)NC(=O)CC3)CC1` [Example A30, 7-{4-[4-(2-Acetyl-3-fluoro-phenyl)-piperazin-1-yl]-butoxy}-3,4-dihydro-1H-[1,8]naphthyridin-2-one], 11%. On the same count and under the same terms, with `CCc1c(F)cccc1N1CCN(CCCCOc2ccc3c(n2)NC(=O)CC3)CC1` [Example A31, 7-{4-[4-(2-Ethyl-3-fluoro-phenyl)-piperazin-1-yl]-butoxy}-3,4-dihydro-1H-[1,8]naphthyridin-2-one] the figure was 26%; with `CC(=O)c1cccc(N2CCN(CCCCOc3ccc4c(n3)NC(=O)CC4)CC2)c1` [Example A33, 7-{4-[4-(3-Acetyl-phenyl)-piperazin-1-yl]-butoxy}-3,4-dihydro-1H-[1,8]naphthyridin-2-one], 31%.

Take `CC(=O)c1ccccc1N1CCN(CCCCOc2ccc3c(n2)NC(=O)CC3)CC1` [Example A34, 7-{4-[4-(2-Acetyl-phenyl)-piperazin-1-yl]-butoxy}-3,4-dihydro-1H-[1,8]naphthyridin-2-one]: the Emax at 1 µM turned out to be 8%.

`CCc1ccccc1N1CCN(CCCCOc2ccc3c(n2)NC(=O)CC3)CC1` [Example A35, 7-{4-[4-(2-Ethyl-phenyl)-piperazin-1-yl]-butoxy}-3,4-dihydro-1H-[1,8]naphthyridin-2-one] gave an Emax at 1 µM of 24%. `O=C1CCc2ccc(OCCCCN3CCN(c4ccccc4C(F)(F)F)CC3)nc2N1` [Example A37, 7-{4-[4-(2-Trifluoromethyl-phenyl)-piperazin-1-yl]-butoxy}-3,4-dihydro-1H-[1,8]naphthyridin-2-one] had an Emax at 1 µM of 46%. Still for that read-out and setting: with `O=C1CCc2ccc(OCCCCN3CCN(c4cccc(C(F)(F)F)c4)CC3)nc2N1` [Example A38, 7-{4-[4-(3-Trifluoromethyl-phenyl)-piperazin-1-yl]-butoxy}-3,4-dihydro-1H-[1,8]naphthyridin-2-one] the figure was 23%; with `O=C1CCc2ccc(OCCCCN3CCN(c4ccccc4)CC3)nc2N1` [Example A39, 7-[4-(4-phenyl-piperazin-1-yl)-butoxy]-3,4-dihydro-1H-[1,8]naphthyridin-2-one], 56%; with `O=C1CCc2ccc(OCCCCN3CCN(c4ccc(F)cc4)CC3)nc2N1` [Example A40, 7-{4-[4-(4-Fluoro-phenyl)-piperazin-1-yl]-butoxy}-3,4-dihydro-1H-[1,8]naphthyridin-2-one], 32%. Same read-out and setting: with `O=C1CCc2ccc(OCCCCN3CCN(c4ccc(F)cc4F)CC3)nc2N1` [Example A41, 7-{4-[4-(2,4-Difluoro-phenyl)-piperazin-1-yl]-butoxy}-3,4-dihydro-1H-[1,8]naphthyridin-2-one] the figure was 28%.

The assay is the same for the next values; noted with them: Table 2; test compound 1 μM; 1 μM Quinpirole = 100% intrinsic activity.
`Cn1ccc2c(N3CCN(CCCCOc4ccc5c(n4)NC(=O)CC5)CC3)cccc21` [Example A26′, 7-{4-[4-(1-Methyl-1H-indol-4-yl)-piperazin-1-yl]-butoxy}-3,4-dihydro-1H-[1,8]naphthyridin-2-one] registered an Emax at 1 µM of 12%. On the same count and under the same terms, in the case of `Cc1cc2c(N3CCN(CCCCOc4ccc5c(n4)NC(=O)CC5)CC3)cccc2[nH]1` [Example A27′, 7-{4-[4-(2-Methyl-1H-indol-4-yl)-piperazin-1-yl]-butoxy}-3,4-dihydro-1H-[1,8]naphthyridin-2-one] it was 21%. Same read-out and setting: in the case of `O=C1CCc2ccc(OCCCCN3CCN(c4cccc5sccc45)CC3)nc2N1` [Example A28′, 7-[4-(4-Benzo[b]thiophen-4-yl-piperazin-1-yl)-butoxy]-3,4-dihydro-1H-[1,8]naphthyridin-2-one] it was 21%; in that of `O=C1CCc2ccc(OCCCCN3CCN(c4cccc5nonc45)CC3)nc2N1` [Example A29′, 7-[4-(4-Benzo[1,2,5]oxadiazol-4-yl-piperazin-1-yl)-butoxy]-3,4-dihydro-1H-[1,8]naphthyridin-2-one], 33%; in that of `O=C1CCc2ccc(OCCCCN3CCN(c4cccc5nsnc45)CC3)nc2N1` [Example A30′, 7-[4-(4-Benzo[1,2,5]thiadiazol-4-yl-piperazin-1-yl)-butoxy]-3,4-dihydro-1H-[1,8]naphthyridin-2-one], 41%.

`CN1CCCc2c1cccc2N1CCN(CCCCOc2ccc3c(n2)NC(=O)CC3)CC1` [Example A32′, 7-{4-[4-(1-Methyl-1,2,3,4-tetrahydro-quinolin-5-yl)-piperazin-1-yl]-butoxy}-3,4-dihydro-1H-[1,8]naphthyridin-2-one] yielded a maximal response (Emax) at 1 µM of 27%.

In the case of `CCN1CCCc2c1cccc2N1CCN(CCCCOc2ccc3c(n2)NC(=O)CC3)CC1` [Example A33′, 7-{4-[4-(1-Ethyl-1,2,3,4-tetrahydro-quinolin-5-yl)-piperazin-1-yl]-butoxy}-3,4-dihydro-1H-[1,8]naphthyridin-2-one], the Emax at 1 µM was found to be 18%.

The compound `O=C1CCc2ccc(OCCCCN3CCN(c4cccc5cccnc45)CC3)nc2N1` [Example A34′, 7-[4-(4-Quinolin-8-yl-piperazin-1-yl)-butoxy]-3,4-dihydro-1H-[1,8]naphthyridin-2-one] yielded an Emax at 1 µM of 38%. In the case of `O=C1CCc2ccc(OCCCCN3CCN(c4cccc5ncccc45)CC3)nc2N1` [Example A35′, 7-[4-(4-Quinolin-5-yl-piperazin-1-yl)-butoxy]-3,4-dihydro-1H-[1,8]naphthyridin-2-one], the maximal response (Emax) at 1 µM came to 20%. The same measure, in the same setting: in the case of `O=C1CCc2ccc(OCCCCN3CCN(c4cccc5ccncc45)CC3)nc2N1` [Example A36′, 7-[4-(4-Isoquinolin-8-yl-piperazin-1-yl)-butoxy]-3,4-dihydro-1H-[1,8]naphthyridin-2-one] it was 62%; in that of `O=C1CCc2ccc(OCCCCN3CCN(c4cccc5cnccc45)CC3)nc2N1` [Example A37′, 7-[4-(4-Isoquinolin-5-yl-piperazin-1-yl)-butoxy]-3,4-dihydro-1H-[1,8]naphthyridin-2-one], 45%; in that of `O=C1CCc2ccc(OCCCCN3CCN(c4cccc5ncc(F)cc45)CC3)nc2N1` [Example A38′, 7-{4-[4-(3-Fluoro-quinolin-5-yl)-piperazin-1-yl]-butoxy}-3,4-dihydro-1H-[1,8]naphthyridin-2-one], 20%. On to `Cc1ccc2cccc(N3CCN(CCCCOc4ccc5c(n4)NC(=O)CC5)CC3)c2n1` [Example A40′, 7-{4-[4-(2-Methyl-quinolin-8-yl)-piperazin-1-yl]-butoxy}-3,4-dihydro-1H-[1,8]naphthyridin-2-one], for which the Emax at 1 µM was found to be 30%.

The record behind these values is patent publication US7160888B2, “[1,8]naphthyridin-2-ones and related compounds for the treatment of schizophrenia” (Warner Lambert Company LLC, priority 2003, dated 2007).
